The text below walks through data of patent US9409952B2, “Peptide-compound cyclization method” (Chugai Seiyaku Kabushiki Kaisha, priority 2011, dated 2016).

Starred links: 1 amine or outer side, 2 acyl side, 3 side chain; linkers in the order of their positions; H or OH if unused. Positions of bridges follow the written chain, without caps; N, C: chain ends. Non-standard residues stand in square brackets, D forms with d. Residues, ends and D or L forms follow the SMILES beside them. *: point of attachment. Phe(4-(CH2)5CO) = O=C([C@H](Cc1ccc(CCCCCC(=O)[*:3])cc1)N[*:1])[*:2]; Ala(4-thiazolyl) = N[C@@H](Cc1cscn1)C(=O)O; NMeF = CN[C@@H](Cc1ccccc1)C(=O)O; NMeI = CC[C@H](C)[C@H](NC)C(=O)O; NMeL = CN[C@@H](CC(C)C)C(=O)O; Ala(CN) = N#CC[C@H](N)C(=O)O; NMeV = CN[C@H](C(=O)O)C(C)C; NMeA = CN[C@@H](C)C(=O)O; Piperidide = C1CCN(*)CC1; dNMeA = CN[C@H](C)C(=O)O; Aze = O=C(O)[C@@H]1CCN1; Sar = CNCC(=O)O; tBu = CC(C)(C)*

The nature of one data set: Metabolic stability in human hepatic microsome.
Settings: not given
The data set is classed as in vitro ADME.
With `CC(C)C[C@H]1C(=O)N[C@@H](COC(C)(C)C)C(=O)N[C@H](C(=O)N2CCCCC2)CC(=O)N(C)[C@@H](C)C(=O)N(C)[C@@H](C)C(=O)N(C)[C@@H](Cc2ccccc2)C(=O)N(C)[C@@H](CC(C)C)C(=O)N[C@@H]([C@@H](C)O)C(=O)N(C)CC(=O)N1C` [Compound P-120, MeAla-MeAla-MePhe-MeLeu-Thr-MeGly-MeLeu-Ser(tBu)-Asp-piperidine] ([NMeA][NMeA][NMeF][NMeL]T[Sar][NMeL]S(tBu)D-Piperidide; lactam N-9), the “Hepatic microsome CLhint (Human) In the absence of NADPH” value came to 5 ul/min/mg Protein.

`CC[C@H](C)[C@H]1C(=O)N[C@H](C(=O)N2CCCCC2)CC(=O)N[C@@H](C)C(=O)N(C)[C@@H](Cc2ccccc2)C(=O)N(C)[C@@H](CC(C)C)C(=O)N[C@@H]([C@@H](C)O)C(=O)N(C)CC(=O)N(C)[C@@H](CC(C)C)C(=O)N[C@@H](COC(C)(C)C)C(=O)N1C` [Compound P-123, Ala-MePhe-MeLeu-Thr-MeGly-MeLeu-Ser(tBu)-MeIle-Asp-piperidine] (A[NMeF][NMeL]T[Sar][NMeL]S(tBu)[NMeI]D-Piperidide; lactam N-9): the “Hepatic microsome CLhint (Human) In the absence of NADPH” value came to 0 ul/min/mg Protein.

The same data set, now with this note: human, microsomes, pH 7.4, CL NADPH(+).
`CC[C@H](C)[C@H]1C(=O)N[C@@H](Cc2ccccc2)C(=O)N(C)[C@@H](Cc2ccccc2)C(=O)N[C@@H]([C@@H](C)O)C(=O)N2CCC[C@H]2C(=O)N[C@@H](CC(C)C)C(=O)N[C@H](C(=O)N2CCCCC2)CC(=O)N[C@@H](C)C(=O)NCC(=O)N(C)[C@@H](C(C)C)C(=O)N(C)[C@@H](CC(C)C)C(=O)N[C@@H](C)C(=O)N1C` [DP-26] (AG[NMeV][NMeL]A[NMeI]F[NMeF]TPLD-Piperidide; lactam N-12) gave a microsomal CLint at 1 uM of 62 µL/min/mg.

For `CC[C@H](C)[C@H]1C(=O)N[C@@H](C)C(=O)N(C)[C@@H](Cc2ccccc2)C(=O)N(C)[C@@H](Cc2ccccc2)C(=O)N[C@@H]([C@@H](C)O)C(=O)N(C)[C@@H](CC(C)C)C(=O)N2CCC[C@H]2C(=O)N[C@H](C(=O)N2CCCCC2)CC(=O)N[C@@H](C)C(=O)N[C@@H](C(C)C)C(=O)N(C)[C@@H](CC(C)C)C(=O)N(C)CC(=O)N(C)[C@@H](CC(C)C)C(=O)N1C` [DP-2] (AV[NMeL][Sar][NMeL][NMeI]A[NMeF][NMeF]T[NMeL]PD-Piperidide; lactam N-13), the microsomal CLint at 1 uM was found to be 7 µL/min/mg.

For `CC[C@H](C)[C@@H]1NC(=O)[C@H](Cc2ccccc2)N(C)C(=O)[C@H](Cc2ccccc2)NC(=O)[C@H](CC(C)C)N(C)C(=O)[C@H](CC(C)C)NC(=O)[C@H](C)NC(=O)C[C@@H](C(=O)N2CCCCC2)NC(=O)[C@H]([C@@H](C)O)NC(=O)[C@@H]2CCCN2C1=O` [DP-33] (AL[NMeL]F[NMeF]IPTD-Piperidide; lactam N-9), the microsomal CLint at 1 uM was found to be 202 µL/min/mg.

Still in this data set, the particulars now being: human, microsomes, pH 7.4, Hepatic microsome CLhint (Human) In the presence of NADPH.
Regarding `CC[C@H](C)[C@H]1C(=O)N[C@H](C(=O)N2CCCCC2)CC(=O)N[C@@H](C)C(=O)N(C)[C@@H](Cc2ccccc2)C(=O)N(C)[C@@H](CC(C)C)C(=O)N[C@@H]([C@@H](C)O)C(=O)N(C)CC(=O)N(C)[C@@H](CC(C)C)C(=O)N[C@@H](COC(C)(C)C)C(=O)N1C` [Compound P-123, Ala-MePhe-MeLeu-Thr-MeGly-MeLeu-Ser(tBu)-MeIle-Asp-piperidine] (A[NMeF][NMeL]T[Sar][NMeL]S(tBu)[NMeI]D-Piperidide; lactam N-9), the microsomal CLint at 1 uM was 106 µL/min/mg.

The same data set, now with this note: microsomes, pH 7.4; human hepatic microsome, NADPH(+); read-out: CL NADPH(+).
Consider `CC(C)C[C@@H]1NC(=O)CN(C)C(=O)[C@H](C)NC(=O)[C@H]([C@@H](C)O)NC(=O)[C@@H](C)N(C)C(=O)C[C@@H](C(=O)N2CCCCC2)NC(=O)[C@H](CC(C)C)N(C)C(=O)[C@H](CC(C)C)NC(=O)[C@H](C(C)C)N(C)C(=O)[C@H](CC(C)C)NC(=O)[C@H](Cc2ccccc2)NC1=O` [DP-328] ([dNMeA]TA[Sar]LFL[NMeV]L[NMeL]D-Piperidide; lactam N-11), for which the microsomal CLint at 1 uM worked out at 32 µL/min/mg.

On to `CC[C@H](C)[C@H]1C(=O)NCC(=O)N(C)[C@@H](CC(C)C)C(=O)N[C@@H]([C@@H](C)O)C(=O)N2CCC[C@H]2C(=O)N[C@@H](Cc2ccccc2)C(=O)N[C@H](C(=O)N2CCCCC2)CC(=O)N(C)[C@@H](C)C(=O)N[C@@H](Cc2ccccc2)C(=O)N2CC[C@H]2C(=O)N[C@@H](CC(C)C)C(=O)N1C` [DP-552] ([NMeA]F[Aze]L[NMeI]G[NMeL]TPFD-Piperidide; lactam N-11), for which the microsomal CLint at 1 uM worked out at 157 µL/min/mg.

In the case of `CC(C)C[C@@H]1NC(=O)C[C@@H](C(=O)N2CCCCC2)NC(=O)[C@H]([C@@H](C)O)NC(=O)[C@H](C(C)C)N(C)C(=O)CN(C)C(=O)[C@H](CC(C)C)N(C)C(=O)[C@H](Cc2ccccc2)NC(=O)[C@H](Cc2ccccc2)N(C)C(=O)[C@@H](C(C)C)NC(=O)[C@H](CC(C)C)N(C)C(=O)[C@H](C)N(C)C1=O` [DP-615] (L[NMeA][NMeL][dV][NMeF]F[NMeL][Sar][NMeV]TD-Piperidide; lactam N-11), the microsomal CLint at 1 uM was 42 µL/min/mg.

On to `CC(C)C[C@@H]1NC(=O)[C@H](CC(C)C)N(C)C(=O)[C@H](CC(C)C)N(C)C(=O)[C@H](CCC(N)=O)NC(=O)[C@H](Cc2ccccc2)N(C)C(=O)[C@H]([C@@H](C)O)NC(=O)[C@H](CC(C)C)N(C)C(=O)[C@H](Cc2ccccc2)NC(=O)[C@H](C)NC(=O)C[C@@H](C(=O)N(C)[C@@H](Cc2ccccc2)C(=O)N[C@@H](C)C(=O)N2CCCCC2)NC1=O` [DP-602] (AF[NMeL]T[NMeF]Q[NMeL][NMeL]LD[NMeF]A-Piperidide; lactam N-10), for which the microsomal CLint at 1 uM was found to be 26 µL/min/mg.

For the molecule `CC(C)C[C@@H]1NC(=O)[C@H](CC(C)C)N(C)C(=O)[C@H](C)N(C)C(=O)[C@H](Cc2ccccc2)NC(=O)C[C@@H](C(=O)N2CCCCC2)NC(=O)[C@H]([C@@H](C)O)NC(=O)[C@H](C(C)C)N(C)C(=O)CN(C)C(=O)[C@H](CC(C)C)N(C)C(=O)[C@@H](C(C)C)NC(=O)[C@H](Cc2ccccc2)N(C)C1=O` [DP-616] (F[NMeA][NMeL]L[NMeF][dV][NMeL][Sar][NMeV]TD-Piperidide; lactam N-11), the microsomal CLint at 1 uM worked out at 69 µL/min/mg.

For the molecule `CC[C@H](C)[C@H]1C(=O)NCC(=O)N(C)[C@@H](CC(C)C)C(=O)N[C@@H]([C@@H](C)O)C(=O)N2CC[C@H]2C(=O)N[C@@H](Cc2ccccc2)C(=O)N[C@H](C(=O)N2CCCCC2)CC(=O)N(C)[C@@H](C)C(=O)N[C@@H](Cc2ccccc2)C(=O)N(C)[C@@H](CC(C)C)C(=O)N[C@@H](CC(C)C)C(=O)N1C` [DP-558] ([NMeA]F[NMeL]L[NMeI]G[NMeL]T[Aze]FD-Piperidide; lactam N-11), the microsomal CLint at 1 uM worked out at 133 µL/min/mg.

As for `CC(C)C[C@H]1C(=O)N(C)[C@@H](CC(C)C)C(=O)N[C@@H](C)C(=O)N[C@H](C(=O)N(C)[C@@H](Cc2ccccc2)C(=O)N[C@@H](C)C(=O)N2CCCCC2)CC(=O)N[C@@H](C)C(=O)N[C@@H](Cc2ccccc2)C(=O)N(C)[C@@H](CC(C)C)C(=O)N[C@@H](CC#N)C(=O)N(C)[C@@H](Cc2ccccc2)C(=O)N[C@@H](C)C(=O)N1C` [DP-613] (AF[NMeL][Ala(CN)][NMeF]A[NMeL][NMeL]AD[NMeF]A-Piperidide; lactam N-10), the microsomal CLint at 1 uM was 37 µL/min/mg.

Regarding `CC(C)C[C@@H]1NC(=O)[C@H](CC(C)C)N(C)C(=O)[C@H](CC(C)C)N(C)C(=O)CNC(=O)[C@H](Cc2ccccc2)N(C)C(=O)[C@H](Cc2cscn2)NC(=O)[C@H](CC(C)C)N(C)C(=O)[C@H](Cc2ccccc2)NC(=O)[C@H](C)NC(=O)C[C@@H](C(=O)N(C)[C@@H](Cc2ccccc2)C(=O)N[C@@H](C)C(=O)N2CCCCC2)NC1=O` [DP-609] (AF[NMeL][Ala(4-thiazolyl)][NMeF]G[NMeL][NMeL]LD[NMeF]A-Piperidide; lactam N-10), the microsomal CLint at 1 uM was found to be 16 µL/min/mg.

With `CC[C@H](C)[C@@H]1NC(=O)[C@H](Cc2ccccc2)N(C)C(=O)[C@H](Cc2ccccc2)NC(=O)[C@H](CC(C)C)N(C)C(=O)[C@H](C(C)C)NC(=O)[C@H](CC(C)C)NC(=O)[C@H](C)N(C)C(=O)CNC(=O)CCCCCc2ccc(cc2)C[C@@H](C(=O)N2CCCCC2)NC(=O)[C@H]([C@@H](C)O)NC(=O)[C@H](CC(C)C)NC(=O)[C@H](C)N(C)C1=O` [DP-891] (G[NMeA]LV[NMeL]F[NMeF]I[NMeA]LT[Phe(4-(CH2)5CO)]-Piperidide; lactam N-12), the microsomal CLint at 1 uM came to 100 µL/min/mg.

In the case of `CC[C@H](C)[C@@H]1NC(=O)[C@H](C(C)C)N(C)C(=O)[C@H](Cc2ccccc2)N(C)C(=O)[C@H](Cc2ccccc2)NC(=O)[C@H](CC(C)C)N(C)C(=O)[C@H](C)N(C)C(=O)[C@H]([C@@H](C)O)NC(=O)[C@H](C)N(C)C(=O)C[C@@H](C(=O)N2CCCCC2)NC(=O)[C@H](CC(C)C)N(C)C1=O` [DP-333] ([NMeA]T[NMeA][NMeL]F[NMeF][NMeV]I[NMeL]D-Piperidide; lactam N-10), the microsomal CLint at 1 uM came out at 157 µL/min/mg.

Turning to `CC[C@H](C)[C@@H]1NC(=O)[C@H](Cc2ccccc2)N(C)C(=O)[C@H](Cc2ccccc2)NC(=O)[C@H](CC(C)C)N(C)C(=O)[C@H](CC(C)C)NC(=O)[C@H](C)NC(=O)C[C@@H](C(=O)N2CCCCC2)NC(=O)[C@H]([C@@H](C)O)NC(=O)[C@H](C)N(C)C1=O` [DP-86] (AL[NMeL]F[NMeF]I[NMeA]TD-Piperidide; lactam N-9), the microsomal CLint at 1 uM turned out to be 237 µL/min/mg.

Consider `CC(C)C[C@H]1C(=O)N(C)[C@@H](CC(C)C)C(=O)N[C@@H](Cc2c[nH]c3ccccc23)C(=O)N[C@H](C(=O)N(C)[C@@H](Cc2ccccc2)C(=O)N[C@@H](C)C(=O)N2CCCCC2)CC(=O)N[C@@H](C)C(=O)N[C@@H](Cc2ccccc2)C(=O)N(C)[C@@H](CC(C)C)C(=O)N[C@@H]([C@@H](C)O)C(=O)N(C)[C@@H](Cc2ccccc2)C(=O)NCC(=O)N1C` [DP-608] (AF[NMeL]T[NMeF]G[NMeL][NMeL]WD[NMeF]A-Piperidide; lactam N-10), for which the microsomal CLint at 1 uM came to 13 µL/min/mg.

Regarding `CC(C)C[C@@H]1NC(=O)[C@H](Cc2ccccc2)N(C)C(=O)[C@H](C)N(C)C(=O)C[C@@H](C(=O)N2CCCCC2)NC(=O)[C@H]([C@@H](C)O)NC(=O)[C@H](CC(C)C)N(C)C(=O)[C@H](Cc2ccccc2)NC(=O)[C@H](CC(C)C)N(C)C(=O)[C@H](CC(C)C)N(C)C1=O` [DP-494] ([NMeA][NMeF]L[NMeL][NMeL]F[NMeL]TD-Piperidide; lactam N-9), the microsomal CLint at 1 uM worked out at 330 µL/min/mg.

Turning to `CC[C@H](C)[C@@H]1NC(=O)[C@H](C)NC(=O)[C@H](CC(C)C)N(C)C(=O)[C@H](CC(C)C)NC(=O)[C@H](Cc2ccccc2)NC(=O)[C@H](C(C)C)NC(=O)[C@H](C)N(C)C(=O)[C@H](CC(C)C)NC(=O)[C@H](Cc2ccccc2)N(C)C(=O)[C@H]([C@@H](C)O)NC(=O)CNC(=O)[C@H](C)NC(=O)C[C@@H](C(=O)N2CCCCC2)NC1=O` [DP-87] (AGT[NMeF]L[NMeA]VFL[NMeL]AID-Piperidide; lactam N-13), the microsomal CLint at 1 uM amounted to 120 µL/min/mg.
